Measurements reported in patent US20050170393A1, “OATPB transporters expressed in blood brain barrier cells” (Xenoport, Inc., priority 2004, published 2005).
Each block holds one compound with its values, some of them ahead of it.

How the values were obtained:
OATPB [1] = biological target: T1, OATPB (Homo sapiens, UniProt O94956); details: cited from earlier work
T1 sequence (O94956 1-709): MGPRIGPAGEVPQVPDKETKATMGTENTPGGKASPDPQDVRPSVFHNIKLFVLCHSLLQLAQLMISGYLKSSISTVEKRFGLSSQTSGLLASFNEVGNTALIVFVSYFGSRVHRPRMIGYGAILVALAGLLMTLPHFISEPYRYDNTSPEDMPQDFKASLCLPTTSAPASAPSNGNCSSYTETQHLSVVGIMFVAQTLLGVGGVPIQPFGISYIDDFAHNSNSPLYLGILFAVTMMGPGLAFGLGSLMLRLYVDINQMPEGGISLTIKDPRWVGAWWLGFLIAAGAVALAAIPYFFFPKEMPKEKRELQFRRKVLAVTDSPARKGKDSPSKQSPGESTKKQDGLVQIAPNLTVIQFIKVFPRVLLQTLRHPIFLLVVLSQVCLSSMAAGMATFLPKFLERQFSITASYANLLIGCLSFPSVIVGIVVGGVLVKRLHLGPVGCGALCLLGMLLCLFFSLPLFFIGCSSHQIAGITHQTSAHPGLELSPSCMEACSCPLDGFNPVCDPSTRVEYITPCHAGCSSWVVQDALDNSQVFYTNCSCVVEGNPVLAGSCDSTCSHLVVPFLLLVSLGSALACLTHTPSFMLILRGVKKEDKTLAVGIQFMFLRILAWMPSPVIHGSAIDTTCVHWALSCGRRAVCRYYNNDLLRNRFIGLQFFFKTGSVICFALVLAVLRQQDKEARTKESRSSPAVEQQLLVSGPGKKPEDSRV

OATPB [2] = biological target: T1, OATPB; assay: ^3H-estrone sulfate uptake into oocytes injected with OATPB cRNA; format: cell-based; set-up: expressed in transfected cells; host or cells: Xenopus oocytes injected with OATPB cRNA; details: oocytes expressing OATPB versus noninjected controls (FIG. 2)
OATPB transporter = biological target: T2, OATPB transporter (Homo sapiens, UniProt O94956); assay: Direct uptake assay in tet-induced and non-induced OATPB-HEK/TREx cells (LC-MS-MS); format: cell-based; details: 125, 250, 500 or 1000 μM, 20 minutes at room temperature, with and without tetracycline (FIG. 7)
T2 construct: expressed in transfected cells
T2 sequence (O94956 1-709): T1 sequence (O94956 1-709)
Excerpt: To increase the throughput of OATPB compound screening, a mammalian cell assay was developed using an inducible expression system. OATPB was subcloned into a plasmid that allows for inducible expression by tetracycline (TREx plasmid, Invitrogen Inc. Carlsbad Calif.). The OATPB-HEK plasmid was […] transfected into a HEK cell line engineered for tetracycline-inducible expression (HEK-TREx, Invitrogen) and stable clones were isolated by G418 selection and […] (FACS).
In order to measure whether test compounds are actively translocated across the membrane, and to determine the maximal transport rate, a direct uptake method can be used in which transport of a test compound is measured by mass spectroscopy. For direct uptake measurements using mass spectroscopy, OATPB-HEK/TREx cells can be prepared similarly to those used for competition studies (described above). […] The supernatant is analyzed by LC-MS-MS. As a negative control, uptake is measured in cells not treated with tetracycline, or by competition with another substrate such as estrone-3-sulfate or bromosulphophthalein (3 mM).
The uptake of PGFα by OATPB-HEK/TREx cells was measured as described in Example 3. […] The supernatant was analyzed by LC-MS-MS. As a negative control, uptake was measured in cells not treated with tetracycline.

PgP = biological target: T3, PgP (Homo sapiens, UniProt P08183); assay: Cellular transwell monolayer efflux assay in MDCK cells transfected with TREx-PgP; format: cell-based
T3 construct: expressed in transfected cells; host or cells: MDCK cells
T3 sequence (P08183 whole entry): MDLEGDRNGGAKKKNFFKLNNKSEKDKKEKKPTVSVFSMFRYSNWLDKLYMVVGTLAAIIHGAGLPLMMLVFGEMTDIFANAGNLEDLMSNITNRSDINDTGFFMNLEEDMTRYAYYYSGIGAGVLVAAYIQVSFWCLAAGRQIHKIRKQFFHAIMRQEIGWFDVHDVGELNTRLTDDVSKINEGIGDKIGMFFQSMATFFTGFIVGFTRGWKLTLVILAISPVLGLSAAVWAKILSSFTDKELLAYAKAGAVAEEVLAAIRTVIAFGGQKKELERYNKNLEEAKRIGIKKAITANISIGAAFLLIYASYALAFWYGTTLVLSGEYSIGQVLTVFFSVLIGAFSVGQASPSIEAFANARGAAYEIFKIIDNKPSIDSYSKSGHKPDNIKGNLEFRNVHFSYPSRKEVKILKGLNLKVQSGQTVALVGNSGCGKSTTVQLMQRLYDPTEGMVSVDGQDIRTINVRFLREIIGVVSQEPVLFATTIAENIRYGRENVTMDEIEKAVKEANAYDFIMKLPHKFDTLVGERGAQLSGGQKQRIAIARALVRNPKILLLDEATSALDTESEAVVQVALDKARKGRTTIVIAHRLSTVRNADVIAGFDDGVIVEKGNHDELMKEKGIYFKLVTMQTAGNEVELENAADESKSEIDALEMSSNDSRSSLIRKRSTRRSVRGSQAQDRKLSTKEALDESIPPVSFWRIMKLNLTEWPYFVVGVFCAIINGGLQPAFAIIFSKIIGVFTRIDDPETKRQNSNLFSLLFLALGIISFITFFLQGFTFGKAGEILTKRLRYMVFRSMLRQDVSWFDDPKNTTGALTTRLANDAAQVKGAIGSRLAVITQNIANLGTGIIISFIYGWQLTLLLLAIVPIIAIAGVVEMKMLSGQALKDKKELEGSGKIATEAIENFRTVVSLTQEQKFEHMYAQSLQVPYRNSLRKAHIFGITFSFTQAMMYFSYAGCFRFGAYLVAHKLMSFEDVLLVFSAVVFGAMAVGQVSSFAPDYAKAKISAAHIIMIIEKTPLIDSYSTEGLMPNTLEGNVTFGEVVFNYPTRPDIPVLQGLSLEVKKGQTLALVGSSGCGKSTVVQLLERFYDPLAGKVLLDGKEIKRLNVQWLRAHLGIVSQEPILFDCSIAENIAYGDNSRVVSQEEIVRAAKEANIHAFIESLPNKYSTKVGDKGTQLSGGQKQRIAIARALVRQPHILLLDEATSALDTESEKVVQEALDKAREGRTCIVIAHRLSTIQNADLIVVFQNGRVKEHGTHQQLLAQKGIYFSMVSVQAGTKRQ
Description: A third type of efflux transporter assay is the cellular transwell monolayer efflux assay. […] The cells form a polarized monolayer. The transwell dishes have apical and basolateral chambers that are separated by the filter membrane on which the polarized monolayer is situated. Assays are performed by placing a test compound in either the apical or basolateral chamber, followed by sampling the opposite chamber after a predetermined period of time such as 60-120 minutes and measuring the amount of the test compound. The test compound can be measured by methods such as radiolabel detection or LC-MS-MS analysis. Assays are performed in the presence and absence of an efflux transporter inhibitor or competitor. Efflux transporter inhibitors or competitors increase apical to basolateral transport and decrease basolateral to apical transport of compounds that are efflux transporter substrates. Apparent permeability (Papp) of test compounds is measured. […] Test compounds that generate ratios between 1.5 and 2.0 require additional testing to determine if they are efflux transporter substrates.
MDCK cells transfected with the tetracycline-inducible TREx-PgP expression vector were seeded on polycarbonate filter membranes in transwell dishes and grown for 3-5 days, yielding a polarized monolayer with tight junctions between cells. […] The left set of bars depicts apical to basolateral transport, while the right set of bars depicts basolateral to apical transport.

[3] = 2.5 nM ^3H-vinblastine, in the presence of 250 μM verapamil versus absence (FIG. 6)

SMILES: O=C1OC(c2ccc(O)c(S(=O)(=O)O)c2)(c2ccc(O)c(S(=O)(=O)O)c2)c2c(Br)c(Br)c(Br)c(Br)c21 [Bromosulfophthalein]
Reported Affinity for OATPB (OATPB [1]): 0.04 mM

SMILES: C[C@]12CC[C@@H]3c4ccc(OS(=O)(=O)O)cc4CC[C@H]3[C@@H]1CCC2=O [Estrone-3-sulfate]
^3H-estrone-3-sulfate uptake (OATPB [2]): higher levels of ^3H-estrone-3-sulfate uptake than noninjected controls
Reported Affinity for OATPB (OATPB [1]): 0.1 mM

OATPB substrate status (OATPB transporter): is a substrate for the OATPB transporter
SMILES: CCCCC[C@H](O)/C=C/[C@@H]1[C@@H](C/C=C\CCCC(=O)O)[C@@H](O)C[C@H]1O [PGFα]

Apical to basolateral transport (PgP; [3]): strongly increased
Basolateral to apical transport (PgP; [3]): strongly decreased
PgP substrate status (PgP; conclusion from the transwell assay with and without verapamil): is a substrate of PgP
SMILES: CC[C@]1(O)C[C@@H]2CN(CCc3c([nH]c4ccccc34)[C@@](C(=O)OC)(c3cc4c(cc3OC)N(C)[C@H]3[C@@](O)(C(=O)OC)[C@H](OC(C)=O)[C@]5(CC)C=CCN6CC[C@]43[C@@H]65)C2)C1 [^3H-vinblastine]
